For data set [1], the target named is human carbonic anhydrase CA XII (Homo sapiens, UniProt O43570). Kind of data set: hCA inhibition, stopped-flow CO2 hydration method, CA XII. The settings on record: Ki for targeted CAs, XII, mean from three assays, errors ±5–10%.
Protocol: (§15) In vitro assessment of all targeted pyrazolobenzothiazine scaffolds for human carbonic anhydrase (hCA) inhibition was performed adopting a stopped-flow CO2 hydration method. The enzyme inhibition assays were carried out for four types of human CA isoforms: CA I, CA II, CA IX, and XII. […] Reason for the selection of these CA isoforms was to develop a comparative relationship for inhibition selectivity between CAs (IX, XII) attributed to tumour/cancer and other CAs (I, II). […] Analyses were carried out in-house using recombinant enzymes as described.
Data set [2] has as its system Candida albicans (ATCC 90027). The experiment in a line: Microbroth single-dose antimicrobial assay, C. albicans. The format is cell-based. As to conditions: ATCC90027, single dose 125 μg/mL, C. albicans ATCC 90027, value (SD). The procedure:
(§1) Microbroth single dose antimicrobial assays were performed against different pathogens including susceptible Staphylococcus aureus (ATCC 25923), Escherichia coli (ATCC 8739), and Candida albicans (ATCC 90027). Pathogens were treated with 125 μg/mL of tested compounds in duplicate.
(§2) The antimicrobial evaluation of the targeted compounds was carried out against five different pathogens including Staphylococcus aureus (susceptible, ATCC 25923; methicillin-resistant, ATCC BAA-41; multidrug-resistant, ATCC BAA-44), Escherichia coli ATCC 8739, and Candida albicans ATCC 90027. Reference antibiotics and final concentrations used as positive controls in these experiments were kanamycin (susceptible S. aureus, 50 μg), vancomycin (methicillin and multidrug-resistant S. aureus, 25 μg), ampicillin (E. coli, 50 μg), and amphotericin B (C. albicans, 25 μg). The final concentration of the tested compounds was 125 μg/mL for microbroth single-dose assays. Dimethyl sulfoxide was used at a final concentration of 0.1% as negative control. […] American type culture collection (ATCC, Manassas, VA, USA) has provided all microbial strains used in above experiments.
(§3) Antimicrobial Single-dose assay for compounds 7(a-n) against
(§4) S. aureus E. coli C. albicans
(§5) Figure S43: Graph showing results of antimicrobial single-dose microbroth assays of compounds 7a–n, dose of tested compounds = 125 μg/mL, control antibiotic s used: kanamycin = 50 μg/mL (Staphylococcus aureus ATCC 25923), ampicillin = 50 μg/mL (Escherichia coli ATCC 8739), and amphotericin B = 25 μg/mL (Candida albicans ATCC 90027). Dimethylsulfoxide ( DMSO) was used as the negative control at 1.25% […]
(§6) Table S1: Results of single-dose antimicrobial and cytotoxic assays for compounds 7a–n; dosage of tested compounds = 125 μg/mL; antibiotic control dosage (kanamycin = 50 μg/mL (Staphylococcus aureus ATCC 25923), ampicillin = 50 μg/mL (Escherichia coli ATCC 8739), and amphotericin B = 25 μg/mL (Candida albicans ATCC 90027).
(§7) For cytotoxic assays, dosage of tested compounds = 10 μM; dosage of mensacarcin […]
(§8) Percent survival / % Cell viability
(§9) Samples S. aureus E.coli (SD) C. albicans (SD) HCT-116 […]

Data set [3] concerns the target human carbonic anhydrase CA IX (Homo sapiens, UniProt Q16790). Kind of data set: hCA inhibition, stopped-flow CO2 hydration method, CA IX. As to conditions: Ki for targeted CAs, IX, mean from three assays, errors ±5–10%.
Protocol: as §15
For data set [4], the system named is methicillin-resistant S. aureus (ATCC BAA-41). Kind of data set: Microbroth dilution assay (MIC90), methicillin-resistant S. aureus. The format is cell-based, Staphylococcus aureus. As to conditions: methicillin-resistant S. aureus ATCC BAA-41, 90% growth inhibition. The protocol: (§10) Microbroth dilution assays were performed for the determination of MIC (minimum inhibitory concentration, MIC90) values for compounds 7b and 7h against three different strains of Staphylococcus aureus: susceptible (ATCC 25923), methicillin-resistant (ATCC BAA-41), and multidrug-resistant (ATCC BAA-44).
as §2
On the technique in general: Dilution methods test growth across graded concentrations, often in twofold steps.

Data set [5] deals with human carbonic anhydrase CA II (Homo sapiens, UniProt P00918). The experiment in a line: hCA inhibition, stopped-flow CO2 hydration method, CA II. As to conditions: Ki for targeted CAs, II, mean from three assays, errors ±5–10%.
Protocol: as §15
Data set [6] has as its system susceptible S. aureus (ATCC 25923). Kind of data set: Microbroth dilution assay (MIC90), susceptible S. aureus. It is filed as cell-based, Staphylococcus aureus. The protocol:
as §10, §2

For data set [7], the system named is Escherichia coli (ATCC 8739). Kind of data set: Microbroth single-dose antimicrobial assay, E. coli. It is filed as cell-based. The settings on record: ATCC8739, single dose 125 μg/mL, E. coli ATCC 8739, value (SD). The protocol:
as §1, §2, §3, §4, §5, §6, §7, §8, §9

Data set [8] has as its target human carbonic anhydrase CA I (Homo sapiens, UniProt P00915). Kind of data set: hCA inhibition, stopped-flow CO2 hydration method, CA I.
Protocol: as §15
The test system of data set [9] is Staphylococcus aureus (ATCC 25923). The experiment in a line: Microbroth single-dose antimicrobial assay, susceptible S. aureus. The format is cell-based. The settings on record: single dose 125 μg/mL. The protocol: as §1, §2, §3, §4, §5, §6, §7, §8, §9
Data set [10] can be described thus: Single-dose MTT cell viability assay. The format is cell-based, human. The settings on record: human, HCT-116 cells (ATCC CCL-247), 48 h, 0.1% DMSO control = 100%, value (SD). The protocol:
(§11) Single-dose MTT assays were performed for compounds 7a–n against the human colon cancer mammalian cell line (HCT-116, ATCC CCL-247) for evaluating their inhibition of mammalian cell metabolism. Solutions of the tested compounds were prepared in DMSO and cancer cells were treated with 10 μM doses of compounds using the apoptosis inducing standard mensacarcin (10 μM) as a positive control.
(§12) Single-dose MTT assays were performed for compounds 7a–n with the human colon cancer mammalian cell line (HCT-116, ATCC CCL-247) for evaluating the compounds’ inhibitory effects on cell viability. Stock solutions of compounds were prepared in DMSO and cancer cells were treated with 10 μM doses of each compound and mensacarcin (10 μM) as a positive control. MTT in 1X PBS was added for a final concentration of 0.5 mg/mL 48 hours post compound addition to each well. Post incubation at 37 °C was carried out for 2 h. After the removal of the growth media, purple formazan metabolic product was dissolved in DMSO. A Biotek Synergy reader (96-well plate) was used to take absorbance of all samples at 550 nm. Cell viability was calculated as the ability of the metabolically active cells to reduce tetrazolium salt MTT [3-(4,5-dimethylthiazolyl-2)-2,5-diphenyltetrazolium bromide]. Control metabolic activity shown by cells treated with 0.1% DMSO was set to 100% cell growth. […]
as §7, §8, §9
(§13) HCT-116 (Human Colorn cancer cell line) Single -dose assay for […]
(§14) Figure S44: Graph showing cell viability of compounds 7a–n against human colon carcinoma cell line (HCT-116, ATCC CCL-247), dose of tested compounds = 10 μM, dose of positive control (mensacarcin) = 10 μM.
On the technique in general: Tetrazolium dyes change colour on reduction, which living cells bring about.

Data set [11] has as its system human colon cancer cell line HCT-116 (ATCC CCL-247). Kind of data set: Single-dose MTT cell viability assay. It is filed as cell-based. The settings on record: 10 μM. The procedure: as §11, §12, §7, §8, §9, §13, §14
The test system of data set [12] is multidrug-resistant S. aureus (ATCC BAA-44). Kind of data set: Microbroth dilution assay (MIC90), multidrug-resistant S. aureus. It is filed as cell-based, Staphylococcus aureus. The settings on record: multidrug-resistant S. aureus ATCC BAA-44, 90% growth inhibition. The procedure:
as §10, §2

Each structure is given as a SMILES string. ≈ marks a conversion by molar mass, not a printed value.

human carbonic anhydrase CA XII, sequence (O43570 25-354): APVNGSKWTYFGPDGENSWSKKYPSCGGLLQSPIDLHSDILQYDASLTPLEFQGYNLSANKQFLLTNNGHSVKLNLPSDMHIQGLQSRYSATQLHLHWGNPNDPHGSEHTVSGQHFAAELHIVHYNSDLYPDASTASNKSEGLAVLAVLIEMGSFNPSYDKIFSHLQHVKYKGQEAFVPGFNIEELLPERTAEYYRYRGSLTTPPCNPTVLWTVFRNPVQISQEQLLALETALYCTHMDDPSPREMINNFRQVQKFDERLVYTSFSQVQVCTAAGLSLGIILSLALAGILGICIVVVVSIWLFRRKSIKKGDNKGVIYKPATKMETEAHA
human carbonic anhydrase CA I, sequence (P00915 whole entry): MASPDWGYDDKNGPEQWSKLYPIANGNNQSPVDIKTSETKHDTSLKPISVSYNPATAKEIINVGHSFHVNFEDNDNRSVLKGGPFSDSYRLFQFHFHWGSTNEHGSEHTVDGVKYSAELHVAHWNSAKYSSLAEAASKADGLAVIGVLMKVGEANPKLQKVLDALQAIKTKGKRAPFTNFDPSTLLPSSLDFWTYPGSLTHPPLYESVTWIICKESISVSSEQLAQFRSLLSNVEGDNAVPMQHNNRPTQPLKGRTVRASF

Consider `CN1c2c(O)nn(CC(=O)Nc3ccc(Br)cc3)c2-c2ccccc2S1(=O)=O` [Compound 7h], for which the Ki is 91.7 µM in data set [1], 90.8 µM in [3], 95.2 µM in data set [5] and over 100 µM in data set [8]. For the same compound, the percent survival at 125 µg/mL in data set [2] is 65.1%; in data set [7] it was over 100%. Also, the MIC90 in data set [4] (Staphylococcus aureus, ATCC BAA-41 / MRSA, read-out: MIC90 MRSA) is 8 µg/mL (≈ 17.3 µM); in [6] (Staphylococcus aureus, ATCC25923, 90% growth inhibition), 8 µg/mL (≈ 17.3 µM); in [12] (Staphylococcus aureus, ATCCBAA44, read-out: MIC90 MDRSA), 8 µg/mL (≈ 17.3 µM). Further, the “MIC90 MRSA” value in data set [4] came to 8 µg/mL (≈ 17.3 µM). In addition, in [6] (90% growth inhibition), the “MIC90 SA” value was 8 µg/mL (≈ 17.3 µM). Besides, the percent survival of S. aureus at 125 µg/mL in data set [9] (Staphylococcus aureus, ATCC25923, S. aureus ATCC 25923, value (SD)) came out at 16.7%. Further, the “antibacterial activity against susceptible S. aureus (in words)” value in [9] (duplicate) was “significant antibacterial activity”. In data set [10], the viability at 48 h, 10 µM was over 100%. The “effect on HCT-116 cell viability (in words)” value in data set [11] is recorded as “no significant decrease in mammalian cell viability”. For the same compound, the “MIC90 MDRSA” value in [12] came to 8 µg/mL (≈ 17.3 µM).

A word on the Ki: it is a measure of affinity in units of concentration, obtained from inhibition or displacement. A higher Ki goes with lower affinity. What is called MIC90 is the lowest concentration that inhibits either 90% of growth or 90% of the strains tested, depending on the study. As usually defined, the viability is a per cent measure of how many cells are alive, often set against a control.

For the origin of these results see article PMC11833175, “Synthesis, characterization, antimicrobial, cytotoxic and carbonic anhydrase inhibition activities of multifunctional pyrazolo-1,2-benzothiazine acetamides” (Beilstein Journal of Organic Chemistry, 2025).
